Laboratory results from patent publication US20120157482A1, “COMPOUNDS AND METHODS” (priority 2009, published 2012).
Structures can show the parent of a compound that is named as a salt.

Target: T1, His-MBP-TEV-Full length human TNNI3K (hTNNI3K) (Homo sapiens, UniProt Q59H18)
T1 construct: His-MBP-TEV-Full length human TNNI3K (hTNNI3K); His (N); TEV cleavage site (N); made in house; host or cells: baculovirus system (printed 'Baculokinase system')
T1 sequence (Q59H18 1-835): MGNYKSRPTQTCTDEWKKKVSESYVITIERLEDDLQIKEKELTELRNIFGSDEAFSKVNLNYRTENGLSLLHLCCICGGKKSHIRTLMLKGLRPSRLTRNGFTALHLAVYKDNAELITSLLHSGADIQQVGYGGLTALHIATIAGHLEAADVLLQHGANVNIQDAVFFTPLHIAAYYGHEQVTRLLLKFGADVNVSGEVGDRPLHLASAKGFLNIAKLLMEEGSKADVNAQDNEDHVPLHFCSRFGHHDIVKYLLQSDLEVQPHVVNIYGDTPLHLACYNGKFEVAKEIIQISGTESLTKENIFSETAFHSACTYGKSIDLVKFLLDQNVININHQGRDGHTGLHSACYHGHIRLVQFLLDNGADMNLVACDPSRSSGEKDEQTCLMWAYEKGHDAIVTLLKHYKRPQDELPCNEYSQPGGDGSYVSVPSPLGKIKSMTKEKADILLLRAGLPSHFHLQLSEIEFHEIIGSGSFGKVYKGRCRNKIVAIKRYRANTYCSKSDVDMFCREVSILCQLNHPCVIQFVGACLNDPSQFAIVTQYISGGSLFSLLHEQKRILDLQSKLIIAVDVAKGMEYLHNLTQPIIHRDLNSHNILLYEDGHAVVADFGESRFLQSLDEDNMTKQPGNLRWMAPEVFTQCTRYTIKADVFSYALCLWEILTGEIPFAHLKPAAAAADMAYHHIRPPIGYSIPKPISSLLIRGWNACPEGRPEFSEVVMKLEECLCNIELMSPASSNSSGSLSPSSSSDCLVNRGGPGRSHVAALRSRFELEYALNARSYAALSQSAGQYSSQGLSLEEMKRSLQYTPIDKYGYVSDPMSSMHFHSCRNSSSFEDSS
Assay: Fluorescent polarization assay of compound inhibition on hTNNI3K ATP binding (Biological Assay Method I)
Conditions: displacement of fluorescent ligand, mean of a minimum of 2 experiments, read-out: mean pXC50 (converted)
Source text: Materials: His-MBP-TEV-Full length human TNNI3K (hTNNI3K) was expressed in Baculokinase system and purified from amylase affinity column followed by Superdex200. The fluorescent ligand 5-({[2-({[3-({4-[(5-hydroxy-2-methylphenyl)amino]-2-pyrimidinyl}amino)phenyl]carbonyl}amino)ethyl]amino}carbonyl)-2-(6-hydroxy-3-oxo-3H-xanthen-9-yl)benzoic acid was used. The other buffer components, including MgCl2 (Catalog Number M1028), Bis-Tris (Catalog Number B7535), DTT (Catalog Number D9779) and Chaps (Catalog Number C3023) were purchased from Sigma-Aldrich.
A fluorescent polarization assay was used to determine does response of compound inhibition on hTNNI3K ATP binding. […]
Fifty (50) nL of inhibitors in DMSO (or DMSO controls) were stamped into a 384-well low volume Greiner black plate, followed by addition of 5 μL of Solution 1 to column 18 and 5 μL Solution 2 to columns 1-17 and 19-24 of the plate. […] After that, the fluorescent polarization was measured on Analyst (ex/em: 485/530 nm, Dichroic: 505). […]

IC50	Compound
0.0251 µM	CNc1cc(Oc2c(C)cc(NC(=O)Nc3cccc(C(F)(F)F)c3)cc2C)ncn1 [Example 5, N-(3,5-dimethyl-4-{[6-(methylamino)-4-pyrimidinyl]oxy}phenyl)-N′-[3-(trifluoromethyl)phenyl]urea trifluoroacetate]
0.0251 µM	CNc1cc(Oc2ccc(NC(=O)Nc3cccc(C(F)(F)F)c3)cc2F)ncn1 [Example 11, N-(3-fluoro-4-{[6-(methylamino)-4-pyrimidinyl]oxy}phenyl)-N′-[3-(trifluoromethyl)phenyl]urea trifluoroacetate]
